These results are taken from patent publication US20230279001A1, “IMIDAZO[1,2-A]PYRIDINE COMPOUNDS FOR THE TREATMENT OF AUTOIMMUNE DISEASE” (Hoffmann-La Roche Inc., priority 2020, published 2023).

The nature of series [1]: Human microsome stability assay. The class given is in vitro ADME. Particulars: human liver microsomes, 1 μM test compound, 37° C., NADPH regenerating system. The protocol: The human microsomal stability assay is used for early assessment of metabolic stability of a test compound in human liver microsomes.
Human liver microsomes (Cat. NO.: 452117, Corning, USA; Cat. NO.: H2610, Xenotech, USA) were preincubated with test compound for 10 minutes at 37° C. in 100 mM potassium phosphate buffer, pH 7.4. The reactions were initiated by adding NADPH regenerating system. The final incubation mixtures contained 1 μM test compound, 0.5 mg/mL liver microsomal protein, 1 mM MgCl2, 1 mM NADP, 1 unit/mL isocitric dehydrogenase and 6 mM isocitric acid in 100 mM potassium phosphate buffer, pH 7.4. After incubation times of 0, 3, 6, 9, 15 and 30 minutes at 37° C., 300 μL of cold acetonitrile (including internal standard) was added to 100 μL incubation mixture to terminate the reaction. Following precipitation and centrifugation, the amount of compound remaining in the samples were determined by LC-MS/MS. Controls of no NADPH regenerating system at zero and 30 minutes were also prepared and analyzed.

In the next series the target is human TLR7 (Homo sapiens (Human), UniProt Q9NYK1). Briefly: HEK293-Blue-hTLR-7 cells assay. The class given is cell-based. Particulars: HEK293-Blue-hTLR7 cells, R848 stimulation, 20 hrs, SEAP reporter; read-out: HEK/hTLR7 IC50. An excerpt: (§1) A stable HEK293-Blue-hTLR-7 cell line was purchased from InvivoGen (Cat. #: hkb-htlr7, San Diego, Calif., USA). These cells were originally designed for studying the stimulation of human TLR7 by monitoring the activation of NF-κB. A SEAP (secreted embryonic alkaline phosphatase) reporter gene was placed under the control of the IFN-β minimal promoter fused to five NF-κB and AP-1-binding sites. The SEAP was induced by activating NF-κB and AP-1 via stimulating HEK-Blue hTLR7 cells with TLR7 ligands. Therefore the reporter expression was declined by TLR7 antagonist under the stimulation of a ligand, such as R848 (Resiquimod), for incubation of 20 hrs. The cell culture supernatant SEAP reporter activity was determined using QUANTI-Blue™ kit (Cat. #: rep-qb1, Invivogen, San Diego, Ca, USA) at a wavelength of 640 nm, a detection medium that turns purple or blue in the presence of alkaline phosphatase.
(§2) HEK293-Blue-hTLR7 cells were incubated at a density of 250,000˜450,000 cells/mL in a volume of 170 μL in a 96-well plate in Dulbecco's Modified Eagle's medium (DMEM) containing 4.5 g/L glucose, 50 U/mL penicillin, […], […], 2 mM L-glutamine, 10% (v/v) heat-inactivated fetal bovine serum with addition of 20 μL test compound in a serial dilution in the presence of final DMSO at 1% and 10 μL of 20 uM R848 in above DMEM, perform incubation under 37° C. in a CO2 incubator for 20 hrs. Then 20 μL of the supernatant from each well was incubated with 180 μL Quanti-blue substrate solution at 37° C. for 2 hrs and the absorbance was read at 620-655 nm using a spectrophotometer. The signaling pathway that TLR7 activation leads to downstream NF-κB activation has been widely accepted, and therefore similar reporter assay was modified for evaluating TLR7 antagonist.

A further series concerns the target human TLR8 (Homo sapiens (Human), UniProt Q9NR97). Briefly: HEK293-Blue-hTLR-8 cells assay. In kind it is cell-based. As to conditions: HEK293-Blue-hTLR8 cells, R848 stimulation, 20 hrs, SEAP reporter; read-out: HEK/hTLR8 IC50.
Excerpt: as §1, with “HEK293-Blue-hTLR-8” for “HEK293-Blue-hTLR-7”, “hkb-htlr8,” for “hkb-htlr7,”, “TLR8” for “TLR7”, “hTLR8” for “hTLR7”, “R848,” for “R848 (Resiquimod),”, “rep-gb1,” for “rep-qb1,”
as §2, with “HEK293-Blue-hTLR8 cells were” for “HEK293-Blue-hTLR7 cells were”, “μL of 60 uM R848” for “μL of 20 uM R848”, “read at 620655 nm using” for “read at 620-655 nm using”, “pathway that TLR8 activation leads” for “pathway that TLR7 activation leads”, “for evaluating TLR8 antagonist.” for “for evaluating TLR7 antagonist.”

The target of a further series is TLR9 (Homo sapiens (Human), UniProt Q9NR96). Briefly: HEK293-Blue-hTLR-9 cells assay. The class given is cell-based. Particulars: HEK293-Blue-hTLR9 cells, ODN2006 stimulation, 20 hrs, SEAP reporter; read-out: HEK/hTLR9 IC50.
Excerpt: as §1, with “HEK293-Blue-hTLR-9” for “HEK293-Blue-hTLR-7”, “hkb-htlr9,” for “hkb-htlr7,”, “TLR9” for “TLR7”, “hTLR9” for “hTLR7”, “ODN2006 (Cat. #: tlr1-2006-1, Invivogen, San Diego, Calif., USA),” for “R848 (Resiquimod),”, “Calif.,” for “Ca,”
HEK293-Blue-hTLR9 cells were incubated at a density of 250,000˜450,000 cells/mL in a volume of 170 μL in a 96-well plate in Dulbecco's Modified Eagle's medium (DMEM) containing 4.5 g/L glucose, 50 U/mL penicillin, […], 2 mM L-glutamine, 10% (v/v) heat-inactivated fetal bovine serum with addition of 20 μL test compound in a serial dilution in the presence of final DMSO at 1% and 10 μL, of 20 uM ODN2006 in above DMEM, perform incubation under 37° C. in a CO2 incubator for 20 hrs. Then 20 μL of the supernatant from each well was incubated with 180 μL, Quanti-blue substrate solution at 37° C. for 2 h and the absorbance was read at 620655 nm using a spectrophotometer. The signaling pathway that TLR9 activation leads to downstream NF-κB activation has been widely accepted, and therefore similar reporter assay was modified for evaluating TLR9 antagonist.

Sequence of human TLR7 (Q9NYK1 27-1049): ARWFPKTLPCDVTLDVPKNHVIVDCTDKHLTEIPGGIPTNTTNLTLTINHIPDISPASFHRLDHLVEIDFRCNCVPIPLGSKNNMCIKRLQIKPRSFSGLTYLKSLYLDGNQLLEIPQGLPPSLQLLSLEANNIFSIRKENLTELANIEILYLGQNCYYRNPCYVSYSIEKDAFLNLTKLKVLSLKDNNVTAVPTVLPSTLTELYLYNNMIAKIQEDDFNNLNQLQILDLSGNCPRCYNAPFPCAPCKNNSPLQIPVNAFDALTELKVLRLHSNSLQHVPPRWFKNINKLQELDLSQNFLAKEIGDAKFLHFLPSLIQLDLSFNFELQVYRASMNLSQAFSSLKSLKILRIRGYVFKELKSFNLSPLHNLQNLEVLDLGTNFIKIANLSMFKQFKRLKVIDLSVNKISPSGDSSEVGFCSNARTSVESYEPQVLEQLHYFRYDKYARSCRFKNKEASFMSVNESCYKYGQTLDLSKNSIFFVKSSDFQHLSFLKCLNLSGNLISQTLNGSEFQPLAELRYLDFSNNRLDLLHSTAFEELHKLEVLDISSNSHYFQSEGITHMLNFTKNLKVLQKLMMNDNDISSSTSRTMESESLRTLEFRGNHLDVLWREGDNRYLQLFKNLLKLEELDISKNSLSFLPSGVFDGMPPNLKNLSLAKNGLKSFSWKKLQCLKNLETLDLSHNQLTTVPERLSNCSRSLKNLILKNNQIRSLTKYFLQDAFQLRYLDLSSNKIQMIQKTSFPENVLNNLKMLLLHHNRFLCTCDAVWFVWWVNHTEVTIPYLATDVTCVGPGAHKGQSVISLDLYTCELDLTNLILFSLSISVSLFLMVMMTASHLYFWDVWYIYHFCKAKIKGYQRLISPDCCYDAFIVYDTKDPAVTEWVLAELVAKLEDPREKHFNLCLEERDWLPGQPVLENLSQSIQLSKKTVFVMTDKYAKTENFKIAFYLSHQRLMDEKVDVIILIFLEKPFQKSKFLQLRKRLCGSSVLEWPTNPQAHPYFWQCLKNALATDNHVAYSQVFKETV
Sequence of human TLR8 (Q9NR97 27-1041): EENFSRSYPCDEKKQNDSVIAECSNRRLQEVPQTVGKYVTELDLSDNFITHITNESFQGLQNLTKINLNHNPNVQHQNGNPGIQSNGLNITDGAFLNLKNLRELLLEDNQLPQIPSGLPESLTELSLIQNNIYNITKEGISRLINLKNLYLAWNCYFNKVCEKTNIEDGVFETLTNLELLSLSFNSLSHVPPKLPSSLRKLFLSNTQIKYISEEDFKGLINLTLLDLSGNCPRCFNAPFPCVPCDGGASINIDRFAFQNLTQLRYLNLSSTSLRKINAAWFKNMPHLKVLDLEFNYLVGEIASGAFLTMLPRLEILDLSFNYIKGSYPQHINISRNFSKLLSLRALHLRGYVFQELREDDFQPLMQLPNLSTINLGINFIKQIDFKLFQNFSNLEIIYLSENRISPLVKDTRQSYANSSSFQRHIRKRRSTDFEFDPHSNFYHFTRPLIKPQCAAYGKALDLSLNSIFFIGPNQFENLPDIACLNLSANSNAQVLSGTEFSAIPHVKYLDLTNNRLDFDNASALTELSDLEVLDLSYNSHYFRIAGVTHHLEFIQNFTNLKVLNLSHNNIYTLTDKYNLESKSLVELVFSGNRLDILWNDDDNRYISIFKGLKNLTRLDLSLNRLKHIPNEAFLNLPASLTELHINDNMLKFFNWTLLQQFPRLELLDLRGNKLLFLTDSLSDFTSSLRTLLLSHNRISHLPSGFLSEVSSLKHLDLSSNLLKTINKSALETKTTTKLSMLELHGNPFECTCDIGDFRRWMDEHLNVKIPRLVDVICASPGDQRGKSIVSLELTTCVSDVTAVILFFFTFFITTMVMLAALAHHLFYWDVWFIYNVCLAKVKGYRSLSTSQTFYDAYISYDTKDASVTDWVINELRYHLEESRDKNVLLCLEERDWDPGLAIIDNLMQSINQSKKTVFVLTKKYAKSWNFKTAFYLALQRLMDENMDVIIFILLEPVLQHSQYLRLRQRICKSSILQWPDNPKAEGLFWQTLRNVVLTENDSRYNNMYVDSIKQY
Sequence of TLR9 (Q9NR96 26-1032): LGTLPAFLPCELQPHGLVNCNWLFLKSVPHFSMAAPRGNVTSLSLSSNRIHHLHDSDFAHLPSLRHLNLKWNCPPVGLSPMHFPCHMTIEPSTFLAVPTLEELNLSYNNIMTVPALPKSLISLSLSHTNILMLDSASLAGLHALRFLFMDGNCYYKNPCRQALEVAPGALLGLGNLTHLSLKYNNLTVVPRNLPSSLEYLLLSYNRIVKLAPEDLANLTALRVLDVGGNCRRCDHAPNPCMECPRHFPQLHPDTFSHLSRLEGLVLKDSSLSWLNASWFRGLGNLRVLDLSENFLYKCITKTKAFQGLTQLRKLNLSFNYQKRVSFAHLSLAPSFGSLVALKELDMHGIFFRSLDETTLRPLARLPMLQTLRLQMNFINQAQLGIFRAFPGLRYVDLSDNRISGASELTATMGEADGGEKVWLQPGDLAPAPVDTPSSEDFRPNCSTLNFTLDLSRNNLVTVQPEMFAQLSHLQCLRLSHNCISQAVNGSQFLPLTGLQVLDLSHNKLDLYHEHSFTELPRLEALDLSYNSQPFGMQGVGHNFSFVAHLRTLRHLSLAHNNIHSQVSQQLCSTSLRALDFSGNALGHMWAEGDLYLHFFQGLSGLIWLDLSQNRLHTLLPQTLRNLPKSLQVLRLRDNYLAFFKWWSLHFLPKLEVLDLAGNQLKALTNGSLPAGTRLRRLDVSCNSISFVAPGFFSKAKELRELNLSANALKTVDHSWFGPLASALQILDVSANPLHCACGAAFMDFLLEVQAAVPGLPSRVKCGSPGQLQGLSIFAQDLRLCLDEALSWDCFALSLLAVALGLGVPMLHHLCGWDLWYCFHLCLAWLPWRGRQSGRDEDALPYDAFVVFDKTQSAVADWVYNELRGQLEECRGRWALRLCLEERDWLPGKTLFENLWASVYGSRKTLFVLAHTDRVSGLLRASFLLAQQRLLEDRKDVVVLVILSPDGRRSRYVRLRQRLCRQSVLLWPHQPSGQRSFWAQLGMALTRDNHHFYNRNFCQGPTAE

On to `Cc1cc(-c2ccc(N3CCC(N)CC3)nc2C(C)C)cn2ccnc12` [Example 1, 1-[6-isopropyl-5-(8-methylimidazo[1,2-a]pyridin-6-yl)-2-pyridyl]piperidin-4-amine], for which the “Clearance of Human microsome” value in series [1] is 9.06 mL/min/kg. For the same molecule, the IC50 at human TLR7 worked out at 1.4 nM; on human TLR8, 1.3 nM; at TLR9, 292 nM.
Turning to `Cc1cn2cc(-c3ccc(N4CCC5(CC4)COCCN5)nc3C(C)C)cc(C)c2n1` [Example 6, 9-[5-(2,8-dimethylimidazo[1,2-a]pyridin-6-yl)-6-isopropyl-2-pyridyl]-4-oxa-1,9-diazaspiro[5.5]undecane], the IC50 on human TLR7 is 13.6 nM; at human TLR8 it was 27 nM; at TLR9, 269 nM.
`COc1cc(-c2ccc(N3CCC4(CCNCC4)CC3)nc2C(F)F)cn2ccnc12` [Example 13, 3-[6-(difluoromethyl)-5-(8-methoxyimidazo[1,2-a]pyridin-6-yl)-2-pyridyl]-3,9-diazaspiro[5.5]undecane]: the “Clearance of Human microsome” value in series [1] was 9.16 mL/min/kg. In addition, the IC50 on human TLR7 was 7.4 nM; on human TLR8, 28.4 nM; on TLR9, 293 nM.
Take `CCc1nc(N2CCC(N3CC4(CNCCO4)C3)CC2)ccc1-c1cc(C)c2nc(C)cn2c1` [Example 16, 2-[1-[5-(2,8-dimethylimidazo[1,2-a]pyridin-6-yl)-6-ethyl-2-pyridyl]-4-piperidyl]-5-oxa-2,8-diazaspiro[3.5]nonane]: the “Clearance of Human microsome” value in series [1] came to 9.54 mL/min/kg. Further, the IC50 on human TLR7 turned out to be 6.2 nM; on human TLR8, 15.7 nM; at TLR9, 111 nM.
`CCc1nc(N2CCN(C(=O)C3CNCCO3)CC2)ccc1-c1cc(C)c2nc(C)cn2c1` (centres unmarked) [Example 18, [4-[5-(2,8-dimethylimidazo[1,2-a]pyridin-6-yl)-6-ethyl-2-pyridyl]piperazin-1-yl]-morpholin-2-yl-methanone]: the IC50 on human TLR7 came out at 22.4 nM; at human TLR8, 28.8 nM; at TLR9, 255 nM.
In the same order, the values of `CCc1nc(N2CCN(c3ncc4c(n3)CNCC4)CC2)ccc1-c1cc(C)c2nc(C)cn2c1` [Example 19, 2-[4-[5-(2,8-dimethylimidazo[1,2-a]pyridin-6-yl)-6-ethyl-2-pyridyl]piperazin-1-yl]-5,6,7,8-tetrahydropyrido[3,4-d]pyrimidine] are 43.5 nM, 1.3 nM and 131 nM.
In the same order, the values of `Cc1cc(-c2ccc(N3CCC(N4CCNCC4)CC3)nc2N(C)C)cn2ccnc12` [Example 23, N,N-dimethyl-3-(8-methylimidazo[1,2-a]pyridin-6-yl)-6-(4-piperazin-1-yl-1-piperidyl)pyridin-2-amine] are 6.4 nM, 8.1 nM and 118 nM.
In the same order, the values of `CO[C@@H]1CN(C2CCN(c3ccc(-c4cc(C)c5nccn5c4)c(N(C)C)n3)CC2)C[C@H]1N` [Example 24, 6-[4-[(3R,4R)-3-amino-4-methoxy-pyrrolidin-1-yl]-1-piperidyl]-N,N-dimethyl-3-(8-methylimidazo[1,2-a]pyridin-6-yl)pyridin-2-amine] are 20.1 nM, 4 nM and 107 nM.
On to `CCc1nc(N2CCC(N3C[C@@H](N)[C@H](OC)C3)CC2)ncc1-c1cc(C)c2nccn2c1` [Example 26, (3R,4R)-1-[1-[4-ethyl-5-(8-methylimidazo[1,2-a]pyridin-6-yl)pyrimidin-2-yl]-4-piperidyl]-4-methoxy-pyrrolidin-3-amine], for which the “Clearance of Human microsome” value in series [1] stood at 8.69 mL/min/kg. Further, the IC50 at human TLR7 turned out to be 7.4 nM; at human TLR8, 1 nM; at TLR9, 229 nM.
In the same order, the values of `CCc1nc(N2CCC(N3CCNCC3)CC2)ncc1-c1cc(C)c2nccn2c1` [Example 27, 6-[4-ethyl-2-(4-piperazin-1-yl-1-piperidyl)pyrimidin-5-yl]-8-methyl-imidazo[1,2-a]pyridine] are 7.75 mL/min/kg, 3.3 nM, 4.6 nM and 259 nM.
`CCc1nc(N2CCC(N3CC4(CNCCO4)C3)CC2)ncc1-c1cc(C)c2nccn2c1` [Example 28, 2-[1-[4-ethyl-5-(8-methylimidazo[1,2-a]pyridin-6-yl)pyrimidin-2-yl]-4-piperidyl]-5-oxa-2,8-diazaspiro[3.5]nonane]: the values for the IC50 on human TLR7, at human TLR8 and at TLR9 were 15.3 nM, 1.3 nM and 159 nM, respectively.
